Assay results as given in patent US11590139B2, “Substituted aminopurine compounds, compositions thereof, and methods of treatment therewith” (Signal Pharmaceuticals, LLC, priority 2014, dated 2023).

Tested on: Lox-IMVI melanoma cell line
Test: Lox-IMVI anti-proliferative assay (growth inhibition, Cell Titer-Glo)
Type: cell-based, human
Conditions: Homo sapiens; Lox-IMVI melanoma cell line, anti-proliferative assay; read-out: Activity (IC50 activity level)
How it was run: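 Cells grown in RPMI + 10% FBS were exposed to compound at 0.5 nM to 10 μM (10-point, 3-fold dilution, duplicate, 0.2% DMSO final) for 72 h at 37 °C, 5% CO2. Viability was read by ATP luminescence at t0 and 72 h. IC50 came from a four-parameter logistic fit normalized to DMSO control.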

`NC(=O)[C@H]1CC[C@@H](n2c(Nc3c(F)cc(F)cc3Cl)nc3cnc(N[C@@H]4CCCN(c5ccccc5)C4)nc32)CC1` [Example 742, (1S,4s)-4-(8-(2-chloro-4,6-difluorophenylamino)-2-((R)-1-phenylpiperidin-3-ylamino)-9H-purin-9-yl)cyclohexanecarboxamide] and `NC(=O)[C@H]1CC[C@@H](n2c(Nc3c(F)cc(F)cc3F)nc3cnc(N[C@@H]4CCCN(c5ccccc5)C4)nc32)CC1` [Example 746, (1S,4s)-4-(2-((R)-1-phenylpiperidin-3-ylamino)-8-(2,4,6-trifluorophenylamino)-9H-purin-9-yl)cyclohexanecarboxamide] cannot be ordered by IC50: > 1000 nM for the first, > 1000 nM for the second.

`NC(=O)[C@H]1CC[C@@H](n2c(Nc3c(Cl)cc(Cl)cc3Cl)nc3cnc(N[C@@H]4CCCN(c5ccccc5)C4)nc32)CC1` [Example 743, (1S,4s)-4-(2-((R)-1-phenylpiperidin-3-ylamino)-8-(2,4,6-trichlorophenylamino)-9H-purin-9-yl)cyclohexanecarboxamide] and `NC(=O)[C@H]1CC[C@@H](n2c(Nc3c(F)cc(Cl)cc3Cl)nc3cnc(N[C@@H]4CCCN(c5ccccc5)C4)nc32)CC1` [Example 748, (1S,4s)-4-(8-(2,4-dichloro-6-fluorophenylamino)-2-((R)-1-phenylpiperidin-3-ylamino)-9H-purin-9-yl)cyclohexanecarboxamide] cannot be ordered by IC50: > 1000 nM for the first, > 1000 nM for the second.

`N#Cc1cc(Cl)c(Nc2nc3cnc(N[C@@H]4CCCN(c5ccccc5)C4)nc3n2[C@H]2CC[C@@H](C(N)=O)CC2)c(Cl)c1` [Example 744, (1S,4s)-4-(8-(2,6-dichloro-4-cyanophenylamino)-2-((R)-1-phenylpiperidin-3-ylamino)-9H-purin-9-yl)cyclohexanecarboxamide] and `N#Cc1cc(F)c(Nc2nc3cnc(N[C@@H]4CCCN(c5ccccc5)C4)nc3n2[C@H]2CC[C@@H](C(N)=O)CC2)c(Cl)c1` [Example 750, (1S,4s)-4-(8-(2-chloro-4-cyano-6-fluorophenylamino)-2-((R)-1-phenylpiperidin-3-ylamino)-9H-purin-9-yl)cyclohexanecarboxamide] cannot be ordered by IC50: > 1000 nM for the first, > 1000 nM for the second.

`N#Cc1cc(F)c(Nc2nc3cnc(N[C@@H]4CCCN(c5ccccc5)C4)nc3n2[C@H]2CC[C@@H](C(N)=O)CC2)c(F)c1` [Example 745, (1S,4s)-4-(8-(4-cyano-2,6-difluorophenylamino)-2-((R)-1-phenylpiperidin-3-ylamino)-9H-purin-9-yl)cyclohexanecarboxamide] and `NC(=O)[C@H]1CC[C@@H](n2c(Nc3c(F)cc(Cl)cc3F)nc3cnc(N[C@@H]4CCCN(c5ccccc5)C4)nc32)CC1` [Example 747, (1S,4s)-4-(8-(4-chloro-2,6-difluorophenylamino)-2-((R)-1-phenylpiperidin-3-ylamino)-9H-purin-9-yl)cyclohexanecarboxamide] cannot be ordered by IC50: > 1000 nM for the first, > 1000 nM for the second.

`NC(=O)[C@H]1CC[C@@H](n2c(Nc3c(Cl)cc(F)cc3Cl)nc3cnc(N[C@@H]4CCCN(c5ccccc5)C4)nc32)CC1` [Example 749, (1S,4s)-4-(8-(2,6-dichloro-4-fluorophenylamino)-2-((R)-1-phenylpiperidin-3-ylamino)-9H-purin-9-yl)cyclohexanecarboxamide] and `NC(=O)[C@H]1CC[C@@H](n2c(Nc3c(Cl)cc(F)cc3Cl)nc3cnc(N[C@@H]4CCCN(Cc5ccccc5)C4)nc32)CC1` [Example 759, (1S,4s)-4-(2-((R)-1-benzylpiperidin-3-ylamino)-8-(2,6-dichloro-4-fluorophenylamino)-9H-purin-9-yl)cyclohexanecarboxamide] cannot be ordered by IC50: > 1000 nM for the first, > 1000 nM for the second.

`NC(=O)[C@H]1CC[C@@H](n2c(Nc3c(F)cc(F)cc3Cl)nc3cnc(N[C@@H]4CCCN(Cc5ccccc5)C4)nc32)CC1` [Example 751, (1S,4s)-4-(2-((R)-1-benzylpiperidin-3-ylamino)-8-(2-chloro-4,6-difluorophenylamino)-9H-purin-9-yl)cyclohexanecarboxamide] and `NC(=O)[C@H]1CC[C@@H](n2c(Nc3c(F)cc(F)cc3F)nc3cnc(N[C@@H]4CCCN(Cc5ccccc5)C4)nc32)CC1` [Example 756, (1S,4s)-4-(2-((R)-1-benzylpiperidin-3-ylamino)-8-(2,4,6-trifluorophenylamino)-9H-purin-9-yl)cyclohexanecarboxamide] cannot be ordered by IC50: > 1000 nM for the first, > 1000 nM for the second.

`NC(=O)[C@H]1CC[C@@H](n2c(Nc3c(Cl)cc(Cl)cc3Cl)nc3cnc(N[C@@H]4CCCN(Cc5ccccc5)C4)nc32)CC1` [Example 752, (1S,4s)-4-(2-((R)-1-benzylpiperidin-3-ylamino)-8-(2,4,6-trichlorophenylamino)-9H-purin-9-yl)cyclohexanecarboxamide] and `NC(=O)[C@H]1CC[C@@H](n2c(Nc3c(F)cc(Cl)cc3Cl)nc3cnc(N[C@@H]4CCCN(Cc5ccccc5)C4)nc32)CC1` [Example 758, (1S,4s)-4-(2-((R)-1-benzylpiperidin-3-ylamino)-8-(2,4-dichloro-6-fluorophenylamino)-9H-purin-9-yl)cyclohexanecarboxamide] cannot be ordered by IC50: > 1000 nM for the first, > 1000 nM for the second.

`N#Cc1cc(Cl)c(Nc2nc3cnc(N[C@@H]4CCCN(Cc5ccccc5)C4)nc3n2[C@H]2CC[C@@H](C(N)=O)CC2)c(Cl)c1` [Example 753, (1S,4s)-4-(2-((R)-1-benzylpiperidin-3-ylamino)-8-(2,6-dichloro-4-cyanophenylamino)-9H-purin-9-yl)cyclohexanecarboxamide] and `NC(=O)[C@H]1CC[C@@H](n2c(Nc3c(Cl)cc(C(F)(F)F)cc3Cl)nc3cnc(N[C@@H]4CCCN(Cc5ccccc5)C4)nc32)CC1` [Example 754, (1S,4s)-4-(2-((R)-1-benzylpiperidin-3-ylamino)-8-(2,6-dichloro-4-(trifluoromethyl)phenylamino)-9H-purin-9-yl)cyclohexanecarboxamide] cannot be ordered by IC50: > 1000 nM for the first, > 1000 nM for the second.

`N#Cc1cc(F)c(Nc2nc3cnc(N[C@@H]4CCCN(Cc5ccccc5)C4)nc3n2[C@H]2CC[C@@H](C(N)=O)CC2)c(F)c1` [Example 755, (1S,4s)-4-(2-((R)-1-benzylpiperidin-3-ylamino)-8-(4-cyano-2,6-difluorophenylamino)-9H-purin-9-yl)cyclohexanecarboxamide] and `NC(=O)[C@H]1CC[C@@H](n2c(Nc3c(F)cc(Cl)cc3F)nc3cnc(N[C@@H]4CCCN(Cc5ccccc5)C4)nc32)CC1` [Example 757, (1S,4s)-4-(2-((R)-1-benzylpiperidin-3-ylamino)-8-(4-chloro-2,6-difluorophenylamino)-9H-purin-9-yl)cyclohexanecarboxamide] cannot be ordered by IC50: > 1000 nM for the first, > 1000 nM for the second.

`C[C@]1(C(N)=O)CC[C@@H](n2c(Nc3c(Cl)cc(C#N)cc3Cl)nc3cnc(N[C@@H]4CCOC[C@H]4F)nc32)CC1` [Example 760, (1S,4s)-4-(8-(2,6-dichloro-4-cyanophenylamino)-2-((3S,4R)-3-fluorotetrahydro-2H-pyran-4-ylamino)-9H-purin-9-yl)-1-methylcyclohexanecarboxamide] and `C[C@]1(C(N)=O)CC[C@@H](n2c(Nc3c(Cl)cc(C#N)cc3Cl)nc3cnc(N[C@H]4CCOC[C@H]4F)nc32)CC1` [Example 761, (1R,4s)-4-(8-(2,6-dichloro-4-cyanophenylamino)-2-((3S,4S)-3-fluorotetrahydro-2H-pyran-4-ylamino)-9H-purin-9-yl)-1-methylcyclohexanecarboxamide] cannot be ordered by IC50: < 250 nM for the first, < 250 nM for the second.

`N#Cc1cc(Cl)c(Nc2nc3cnc(N[C@@H]4CCOC[C@H]4F)nc3n2[C@H]2CC[C@@H](C(N)=O)CC2)c(Cl)c1` [Example 762, (1S,4s)-4-(8-(2,6-dichloro-4-cyanophenylamino)-2-((3S,4R)-3-fluorotetrahydro-2H-pyran-4-ylamino)-9H-purin-9-yl)cyclohexanecarboxamide] and `N#Cc1cc(Cl)c(Nc2nc3cnc(N[C@H]4CCOC[C@H]4F)nc3n2[C@H]2CC[C@@H](C(N)=O)CC2)c(Cl)c1` [Example 765, (1R,4s)-4-(8-(2,6-dichloro-4-cyanophenylamino)-2-((3S,4S)-3-fluorotetrahydro-2H-pyran-4-ylamino)-9H-purin-9-yl)cyclohexanecarboxamide] cannot be ordered by IC50: < 250 nM for the first, < 250 nM for the second.

First: C[C@@H]1COCC[C@@H]1Nc1ncc2nc(Nc3c(Cl)cc(C#N)cc3Cl)n([C@H]3CC[C@@](C)(C(N)=O)CC3)c2n1 [Example 763, (1S,4s)-4-(8-(2,6-dichloro-4-cyanophenylamino)-2-((3S,4R)-3-methyltetrahydro-2H-pyran-4-ylamino)-9H-purin-9-yl)-1-methylcyclohexanecarboxamide]
Second: CC1(C)COCC[C@H]1Nc1ncc2nc(Nc3c(Cl)cc(Cl)cc3Cl)n([C@H]3CC[C@@H](C(N)=O)CC3)c2n1 [Example 766, (1S,4s)-4-(2-((R)-3,3-dimethyltetrahydro-2H-pyran-4-ylamino)-8-(2,4,6-trichlorophenylamino)-9H-purin-9-yl)cyclohexanecarboxamide]
The IC50 of the first is lower: < 250 nM for the first, 500 to 1000 nM for the second. The first is the more potent here.

First: CC1(C)COCC[C@H]1Nc1ncc2nc(Nc3c(F)cc(Cl)cc3Cl)n([C@H]3CC[C@@H](C(N)=O)CC3)c2n1 [Example 764, (1S,4s)-4-(8-(2,4-dichloro-6-fluorophenylamino)-2-((R)-3,3-dimethyltetrahydro-2H-pyran-4-ylamino)-9H-purin-9-yl)cyclohexanecarboxamide]
Second: CC(C)OC(=O)N1CCC[C@@H](Nc2ncc3nc(Nc4c(F)cc(F)cc4Cl)n([C@H]4CC[C@@H](C(N)=O)CC4)c3n2)C1 [Example 767, (R)-isopropyl 3-(9-((1s,4S)-4-carbamoylcyclohexyl)-8-(2-chloro-4,6-difluorophenylamino)-9H-purin-2-ylamino)piperidine-1-carboxylate]
The IC50 of the first is lower: 500 to 1000 nM for the first, > 1000 nM for the second.

`CC(C)OC(=O)N1CCC[C@@H](Nc2ncc3nc(Nc4c(Cl)cc(Cl)cc4Cl)n([C@H]4CC[C@@H](C(N)=O)CC4)c3n2)C1` [Example 768, (R)-isopropyl 3-(9-((1s,4S)-4-carbamoylcyclohexyl)-8-(2,4,6-trichlorophenylamino)-9H-purin-2-ylamino)piperidine-1-carboxylate] gave an IC50 of 500 to 1000 nM.
